Legend:
K18PL tau [1] = target: T1, K18PL tau (Homo sapiens, UniProt P10636, P618L); assay: Heparin-induced K18PL tau fibrillization assay monitored by ThT fluorescence; type: biochemical; settings: Table 4; for Tau ThT Assay % Inhib. / inhibition at 80 µM: highest tested concentration (80 μM); for inhibition at 80 µM: read-out: Tau ThT Assay % Inhib.; for IC50 / Tau ThT Assay Log IC50: logarithm of IC50, K18PL tau ThT fluorescence inhibition; for IC50: read-out: Tau ThT Assay Log IC50 (converted)
T1 construct: (K18PL; amino acids 244-369); made in house
T1 sequence (P10636 561-686 P618L): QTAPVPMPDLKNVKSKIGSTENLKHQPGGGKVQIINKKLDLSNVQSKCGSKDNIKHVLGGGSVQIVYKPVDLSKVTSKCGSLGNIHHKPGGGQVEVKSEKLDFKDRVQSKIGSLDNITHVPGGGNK
Experimental: Tau fibril formation reactions were performed essentially as described (Crowe, A., Ballatore, C., Hyde, E., Trojanowski, J. Q., and Lee, V. M. Y. (2007) Biochemical and Biophysical Research Communications 358, 1-6). K18PL (2 μl of a 30 μM stock that also contained 0.24 μM Alexa Red-labeled K18PL) was dispensed into black 1536-well plates (Grenier) using a solenoid-based dispenser. Following transfer of 23 nL of test compound or DMSO vehicle by a pin tool from compound library plates, 2 μl/well of 40 μM heparin in reagent buffer was dispensed and the plate was centrifuged for 15 s at 1000 rpm in a table-top centrifuge. The fibrillization reaction proceeded for 6 hours at 37° C. in a humidified incubator (Kalypsys).
K18PL fibril formation was quantified with a ThT assay as previously described (Crowe, A., Ballatore, C., Hyde, E., Trojanowski, J. Q., and Lee, V. M. Y. (2007) Biochemical and Biophysical Research Communications 358, 1-6). Briefly, 1 μl/well of 62.5 μM ThT (Sigma) in 100 mM glycine, pH 8.5 (12.5 μM final concentration) was dispensed into 1536-well plates after completion of the fibrillization reaction and incubated at room temperature for 1 hour. Plates were read on an Envision fluorescence plate reader with an excitation of 450 nm and an emission setting of 510 nm.
Compound effects on tau assembly were determined for the ThT and FP assays using the formula 1−(Fcompound− FDMSO)/( Fcontrol− FDMSO), where Fcontrol denotes the median plate fluorescence values (ThT assay) or mP values (FP assay) of the non-fibrillizing K18 KD control wells, FDMSO denotes the median value of the DMSO control wells, and Fcompound denotes the compound well values. The resulting values were multiplied by 100 to obtain the percent inhibition of tau fibril formation.
(§1) The solubility of test compounds in the sodium acetate buffer used for subsequent fibrillization reactions was determined by turbidimetric measurements. Compounds were then evaluated in a heparin-induced tau assembly assay, in which the fibrillization of the truncated K18 tau fragment (comprised of four MT-binding repeats) bearing the P301L mutation (K18PL) found in FTDP-17, was monitored by thioflavine-T (ThT) binding and fluorescence (FIG. 3A). (Crowe, A.; et al., Identification of aminothienopyridazine inhibitors of tau assembly by quantitative high-throughput screening. Biochemistry 2009, 48, 7732-45.) The inhibitory activity of test compounds was then confirmed with an orthogonal sedimentation assay in which compound-treated fibrillizing mixtures were centrifuged and quantitation of K18PL tau in the soluble and insoluble fraction was performed by densitometric analyses of SDS-PAGE (FIG. 3B). […] Thus, the tau fibrillization assay was repeated in which both DMSO- and compound-treated mixtures were initially centrifuged for 30 min. prior to incubation (i.e., at time zero of the fibrillization reaction) to remove any pelletable material.

K18PL tau [2] = target: T1, K18PL tau; assay: K18PL tau centrifugation (sedimentation) assay, SDS-PAGE densitometry; type: biochemical; settings: Table 4; K18PL tau centrifugation assay
Experimental: The determination of compound-induced effects on the amount of tau that remains soluble upon centrifugation, and EM visualization of tau species following incubation with test compounds, were as previously described (Crowe, A., Ballatore, C., Hyde, E., Trojanowski, J. Q., and Lee, V. M. Y. (2007) Biochemical and Biophysical Research Communications 358, 1-6).
as §1

Structure (SMILES)	Tau ThT Assay % Inhib. (K18PL tau [1])	Tau Cent. Assay % Soluble (K18PL tau [2])	inhibition at 80 µM (K18PL tau [1])	IC50 (K18PL tau [1])	Tau ThT Assay Log IC50 (K18PL tau [1])
CCOC(=O)c1nn(-c2ccc([N+](=O)[O-])cc2)c(=O)c2c(N)scc12 [CNDR-51352, Ethyl 5-amino-3-(4-nitrophenyl)-4-oxo-3,4-dihydrothieno[3,4-d]pyridazine-1-carboxylate]	–	59%	69%	50.1 µM	–
CCOC(=O)c1nn(-c2ccc(N)cc2)c(=O)c2c(N)scc12 [CNDR-51355, Ethyl 5-amino-3-(4-aminophenyl)-4-oxo-3,4-dihydrothieno[3,4-d]pyridazine-1-carboxylate]	–	67%	74%	1.26 µM	–
CCOC(=O)c1nn(-c2ccc(O)cc2)c(=O)c2c(N)scc12 [CNDR-51363, Ethyl 5-amino-3-(4-hydroxyphenyl)-4-oxo-3,4-dihydrothieno[3,4-d]pyridazine-1-carboxylate]	–	69%	81%	–	−5.3
CCOC(=O)c1nn(-c2ccc(OC(F)(F)F)cc2)c(=O)c2c(N)scc12 [CNDR-51369, Ethyl 5-amino-4-oxo-3-(4-(trifluoromethoxy)phenyl)-3,4-dihydrothieno[3,4-d]pyridazine-1-carboxylate]	–	29%	41%	2 µM	–
Nc1scc2c(C(=O)O)nn(-c3ccc(OC(F)(F)F)cc3)c(=O)c12 [CNDR-51370, 5-Amino-4-oxo-3-(4-(trifluoromethoxy)phenyl)-3,4-dihydrothieno[3,4-d]pyridazine-1-carboxylic acid]	–	65%	88%	6.31 µM	–
CCOC(=O)c1nn(-c2ccc(C(F)(F)F)cc2)c(=O)c2c(N)scc12 [CNDR-51373, Ethyl 5-amino-4-oxo-3-(4-(trifluoromethyl)phenyl)-3,4-dihydrothieno[3,4-d]pyridazine-1-carboxylate]	–	27%	48%	10 µM	–
CC(C)NC(=O)c1nn(-c2ccc(O)cc2)c(=O)c2c(N)scc12 [CNDR-51376, 5-Amino-3-(4-hydroxyphenyl)-N-isopropyl-4-oxo-3,4-dihydrothieno[3,4-d]pyridazine-1-carboxamide]	–	84%	86%	–	−4.8
CCOC(=O)c1nn(-c2cccc(Cl)c2)c(=O)c2c(N)scc12 [CNDR-51387]	90%	71%	–	–	−5.7
Nc1scc2c(C(=O)O)nn(-c3ccc(Br)cc3)c(=O)c12 [CNDR-51389, 5-Amino-3-(4-bromophenyl)-4-oxo-3,4-dihydrothieno[3,4-d]pyridazine-1-carboxylic acid]	–	78%	95%	3.16 µM	–
CCOC(=O)c1nn(-c2ccc(F)cc2)c(=O)c2c(N)scc12 [CNDR-51394, Ethyl 5-amino-3-(4-fluorophenyl)-4-oxo-3,4-dihydrothieno[3,4-d]pyridazine-1-carboxylate]	–	63%	77%	–	−6.0
Nc1scc2c(C(=O)O)nn(-c3ccc(F)cc3)c(=O)c12 [CNDR-51395, 5-Amino-3-(4-fluorophenyl)-4-oxo-3,4-dihydrothieno[3,4-d]pyridazine-1-carboxylic acid]	–	83%	84%	–	−5.7
CC(C)NC(=O)c1nn(-c2ccc(F)cc2)c(=O)c2c(N)scc12 [CNDR-51396, 5-Amino-3-(4-fluorophenyl)-N-isopropyl-4-oxo-3,4-dihydrothieno[3,4-d]pyridazine-1-carboxamide]	–	77%	89%	–	−5.8
Nc1scc2c(C(=O)NC3CC3)nn(-c3ccc(F)cc3)c(=O)c12 [CNDR-51397, 5-Amino-N-cyclopropyl-3-(4-fluorophenyl)-4-oxo-3,4-dihydrothieno[3,4-d]pyridazine-1-carboxamide]	–	78%	88%	–	−5.6
CCOC(=O)c1nn(-c2ccc(I)cc2)c(=O)c2c(N)scc12 [CNDR-51404, Ethyl 5-amino-3-(4-iodophenyl)-4-oxo-3,4-dihydrothieno[3,4-d]pyridazine-1-carboxylate]	–	63%	89%	2.51 µM	–
CCOC(=O)c1nn(-c2ccc(Cl)cc2)c(=O)c2c(N)sc(Br)c12 [CNDR-51411, Ethyl 5-amino-7-bromo-3-(4-chlorophenyl)-4-oxo-3,4-dihydrothieno[3,4-d]pyridazine-1-carboxylate]	–	62%	92%	–	−5.4

The next lines start with the values.

Tau ThT Assay % Inhib. (K18PL tau [1])	Tau Cent. Assay % Soluble (K18PL tau [2])	inhibition at 80 µM (K18PL tau [1])	IC50 (K18PL tau [1])	Tau ThT Assay Log IC50 (K18PL tau [1])	Structure (SMILES)
8%	17%	–	–	–	CCOC(=O)c1nn(-c2ccc(C(C)C)cc2)c(=O)c2c(N)scc12 [CNDR-51347]
–	51%	39%	5.01 µM	–	CCOC(=O)c1nn(-c2ccc(Cl)cc2)c(=O)c2c(NC)scc12 [CNDR-51360, Ethyl 3-(4-chlorophenyl)-5-(methylamino)-4-oxo-3,4-dihydrothieno[3,4-d]pyridazine-1-carboxylate]
–	70%	84%	–	−5.4	Nc1scc2c(C(=O)O)nn(-c3ccc(O)cc3)c(=O)c12 [CNDR-51374, 5-Amino-3-(4-hydroxyphenyl)-4-oxo-3,4-dihydrothieno[3,4-d]pyridazine-1-carboxylic acid]
–	42%	67%	–	–	CC(C)NC(=O)c1nn(-c2ccc(OC(F)(F)F)cc2)c(=O)c2c(N)scc12 [CNDR-51375, 5-Amino-N-isopropyl-4-oxo-3-(4-(trifluoromethoxy)phenyl)-3,4-dihydrothieno[3,4-c]pyridazine-1-carboxamide]
–	77%	93%	3.16 µM	–	NNC(=O)c1nn(-c2ccc(Cl)cc2)c(=O)c2c(N)scc12 [CNDR-51378, 5-Amino-3-(4-chlorophenyl)-4-oxo-3,4-dihydrothieno[3,4-d]pyridazine-1-carbohydrazide]
–	71%	92%	–	−5.8	Nc1scc2c(C(=O)O)nn(-c3cccc(Cl)c3)c(=O)c12 [CNDR-51388, 5-Amino-3-(3-chlorophenyl)-4-oxo-3,4-dihydrothieno[3,4-d]pyridazine-1-carboxylic acid]
–	62%	83%	1.26 µM	–	CC(C)NC(=O)c1nn(-c2cccc(Cl)c2)c(=O)c2c(N)scc12 [CNDR-51391, 5-Amino-3-(3-chlorophenyl)-N-isopropyl-4-oxo-3,4-dihydrothieno[3,4-d]pyridazine-1-carboxamide]
–	65%	88%	–	−5.7	CCOC(=O)c1nn(-c2ccc(Cl)cc2)c(=O)c2c(N)sc(Cl)c12 [CNDR-51393, Ethyl 5-amino-7-chloro-3-(4-chlorophenyl)-4-oxo-3,4-dihydrothieno[3,4-d]pyridazine-1-carboxylate]
87%	90%	–	–	−5.9	Cc1nn(-c2ccc(Cl)cc2)c(=O)c2c(N)scc12 [CNDR-51400]
85%	44%	–	–	−6.0	Nc1scc2c(-c3ccccc3)nn(-c3ccc(Cl)cc3)c(=O)c12 [CNDR-51405]

From patent publication US20130029983A1, “AMINOTHIENOPYRIDAZINE INHIBITORS OF TAU ASSEMBLY” (priority 2009, published 2013)
